In ChEMBL document CHEMBL1141581, “Cyclic guanidines as dual 5-HT5A/5-HT7 receptor ligands: structure-activity relationship elucidation” (Bioorg Med Chem Lett, 2008):
pIC50, pKi: −log10 of the molar value.

Key:
[1] = molecular target: T1, 5-hydroxytryptamine receptor 5A (Homo sapiens, UniProt P47898); assay: Displacement of [3H]LSD from human recombinant 5HT5A receptor expressed in HEK293-EBNA cells; type: cell-based
Homo sapiens [2] = organism: Homo sapiens; assay: Selectivity for human recombinant 5HT5A receptor over human recombinant 5HT6 receptor
[3] = molecular target: T2, 5-hydroxytryptamine receptor 2C (Homo sapiens, UniProt P28335); assay: Displacement of [3H]mesulergine from human recombinant 5HT2C receptor expressed in HEK293-EBNA cells; type: cell-based
T2 sequence (P28335 whole entry): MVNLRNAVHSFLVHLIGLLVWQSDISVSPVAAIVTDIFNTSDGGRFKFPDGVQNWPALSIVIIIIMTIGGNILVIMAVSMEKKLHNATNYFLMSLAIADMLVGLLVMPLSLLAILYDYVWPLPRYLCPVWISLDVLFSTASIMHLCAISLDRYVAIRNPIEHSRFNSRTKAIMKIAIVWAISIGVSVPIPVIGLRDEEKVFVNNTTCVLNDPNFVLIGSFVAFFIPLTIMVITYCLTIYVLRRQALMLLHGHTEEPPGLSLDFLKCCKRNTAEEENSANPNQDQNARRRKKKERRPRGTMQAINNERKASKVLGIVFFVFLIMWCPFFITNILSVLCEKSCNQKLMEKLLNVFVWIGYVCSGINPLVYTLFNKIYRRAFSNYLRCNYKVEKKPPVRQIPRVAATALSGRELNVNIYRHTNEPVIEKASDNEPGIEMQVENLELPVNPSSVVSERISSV

[4] = molecular target: 5-hydroxytryptamine receptor 1D (Homo sapiens, UniProt P28221); assay: Displacement of [3H]LSD from human recombinant 5HT1D receptor expressed in HEK293-EBNA cells; type: cell-based
Sequence of 5-hydroxytryptamine receptor 1D (P28221 whole entry): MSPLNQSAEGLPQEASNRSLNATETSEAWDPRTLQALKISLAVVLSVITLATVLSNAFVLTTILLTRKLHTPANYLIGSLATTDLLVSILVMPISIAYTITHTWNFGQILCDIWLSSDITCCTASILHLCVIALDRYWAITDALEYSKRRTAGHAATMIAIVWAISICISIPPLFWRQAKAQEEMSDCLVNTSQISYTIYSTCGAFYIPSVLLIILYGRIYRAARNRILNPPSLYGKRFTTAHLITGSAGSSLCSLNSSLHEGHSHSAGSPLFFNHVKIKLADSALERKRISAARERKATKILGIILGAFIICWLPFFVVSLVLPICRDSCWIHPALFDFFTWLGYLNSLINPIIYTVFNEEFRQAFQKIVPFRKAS

[5] = molecular target: T3, 5-hydroxytryptamine receptor 1A (Homo sapiens, UniProt P08908); assay: Displacement of [3H]8-OH-DPAT from human recombinant 5HT1A receptor expressed in HEK293-EBNA cells; type: cell-based
T3 sequence (P08908 whole entry): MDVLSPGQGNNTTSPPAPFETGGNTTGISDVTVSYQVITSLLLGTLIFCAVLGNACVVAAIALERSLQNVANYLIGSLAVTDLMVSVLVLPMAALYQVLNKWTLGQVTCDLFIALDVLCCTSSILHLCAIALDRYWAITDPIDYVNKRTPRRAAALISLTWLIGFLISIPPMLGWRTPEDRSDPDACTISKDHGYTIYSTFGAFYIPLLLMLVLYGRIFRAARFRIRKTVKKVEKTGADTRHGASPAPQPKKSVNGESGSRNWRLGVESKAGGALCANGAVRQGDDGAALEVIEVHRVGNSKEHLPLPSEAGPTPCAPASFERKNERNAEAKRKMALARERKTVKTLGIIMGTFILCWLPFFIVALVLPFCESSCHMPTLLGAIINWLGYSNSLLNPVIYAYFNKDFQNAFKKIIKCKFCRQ

Homo sapiens [6] = organism: Homo sapiens; assay: Selectivity for human recombinant 5HT5A receptor over human recombinant 5HT2A receptor
[7] = molecular target: 5-hydroxytryptamine receptor 7 (Homo sapiens, UniProt P34969); assay: Displacement of [3H]LSD from human recombinant 5HT7 receptor expressed in HEK293-EBNA cells; type: cell-based
Sequence of 5-hydroxytryptamine receptor 7 (P34969 whole entry): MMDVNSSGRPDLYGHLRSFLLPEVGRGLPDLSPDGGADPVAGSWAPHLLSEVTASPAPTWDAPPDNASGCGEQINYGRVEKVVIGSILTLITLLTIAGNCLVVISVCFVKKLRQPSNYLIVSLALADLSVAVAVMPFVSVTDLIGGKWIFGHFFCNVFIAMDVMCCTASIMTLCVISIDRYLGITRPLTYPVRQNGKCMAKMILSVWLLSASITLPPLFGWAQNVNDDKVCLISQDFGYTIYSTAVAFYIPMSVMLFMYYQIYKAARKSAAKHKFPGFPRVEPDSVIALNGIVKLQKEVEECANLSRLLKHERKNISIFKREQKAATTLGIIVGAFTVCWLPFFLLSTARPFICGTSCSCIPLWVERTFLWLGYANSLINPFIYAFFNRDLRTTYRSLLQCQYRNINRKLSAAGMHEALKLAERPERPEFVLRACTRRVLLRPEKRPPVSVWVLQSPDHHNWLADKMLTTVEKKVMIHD

Homo sapiens [8] = organism: Homo sapiens; assay: Selectivity for human recombinant 5HT5A receptor over human 5HT3 receptor
Homo sapiens [9] = organism: Homo sapiens; assay: Selectivity for human recombinant 5HT5A receptor over human recombinant 5HT1D receptor
Histamine H1 receptor = Histamine H1 receptor (Homo sapiens, UniProt P35367); assay: Binding affinity to histamine H1 receptor
Sequence of Histamine H1 receptor (P35367 whole entry): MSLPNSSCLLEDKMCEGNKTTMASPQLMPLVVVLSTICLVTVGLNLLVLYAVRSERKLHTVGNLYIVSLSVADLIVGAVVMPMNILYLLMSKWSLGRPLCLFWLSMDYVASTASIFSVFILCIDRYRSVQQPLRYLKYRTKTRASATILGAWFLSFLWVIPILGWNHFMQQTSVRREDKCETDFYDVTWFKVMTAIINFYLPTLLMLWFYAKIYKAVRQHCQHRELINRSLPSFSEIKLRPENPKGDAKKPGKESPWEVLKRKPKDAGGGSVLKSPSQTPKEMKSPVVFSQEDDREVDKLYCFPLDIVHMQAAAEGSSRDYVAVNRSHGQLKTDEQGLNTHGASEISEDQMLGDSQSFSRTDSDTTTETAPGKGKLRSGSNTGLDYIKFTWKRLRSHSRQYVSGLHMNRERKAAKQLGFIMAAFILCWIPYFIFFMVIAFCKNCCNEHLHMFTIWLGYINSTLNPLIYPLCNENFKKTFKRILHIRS

[10] = molecular target: T4, 5-hydroxytryptamine receptor 2B (Homo sapiens, UniProt P41595); assay: Inhibition of 5HT2B receptor
T4 sequence (P41595 whole entry): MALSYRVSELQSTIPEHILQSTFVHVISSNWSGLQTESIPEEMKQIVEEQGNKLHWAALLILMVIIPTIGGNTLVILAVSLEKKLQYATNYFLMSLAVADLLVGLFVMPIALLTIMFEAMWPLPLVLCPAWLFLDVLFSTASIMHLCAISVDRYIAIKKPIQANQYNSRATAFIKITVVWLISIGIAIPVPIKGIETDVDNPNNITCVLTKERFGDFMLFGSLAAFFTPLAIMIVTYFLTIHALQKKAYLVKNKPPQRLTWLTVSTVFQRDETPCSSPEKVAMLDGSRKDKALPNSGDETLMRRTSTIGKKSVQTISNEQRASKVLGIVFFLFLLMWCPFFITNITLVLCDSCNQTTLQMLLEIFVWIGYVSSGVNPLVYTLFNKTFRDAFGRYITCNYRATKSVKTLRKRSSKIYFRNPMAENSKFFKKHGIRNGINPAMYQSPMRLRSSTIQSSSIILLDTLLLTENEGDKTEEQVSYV

[11] = Protein binding in mouse plasma; type: ADME, cell-free; conditions: read-out: PPB (converted)
[12] = Inhibition of adrenergic alpha-2 receptor
[13] = molecular target: T1, 5-hydroxytryptamine receptor 5A; assay: Antagonist activity at human recombinant 5HT5A receptor expressed in HEK293-EBNA cells by [35S]GTP-gamma-S binding assay; type: functional, cell-based
[14] = Inhibition of adrenergic alpha-1 receptor at 1 uM
[15] = molecular target: T4, 5-hydroxytryptamine receptor 2B; conditions: 1 uM
Description: Inhibition of 5HT2B receptor at 1 uM

[16] = molecular target: T5, 5-hydroxytryptamine receptor 3A (Homo sapiens, UniProt P46098); assay: Binding affinity to human 5HT3 receptor
T5 sequence (P46098 whole entry): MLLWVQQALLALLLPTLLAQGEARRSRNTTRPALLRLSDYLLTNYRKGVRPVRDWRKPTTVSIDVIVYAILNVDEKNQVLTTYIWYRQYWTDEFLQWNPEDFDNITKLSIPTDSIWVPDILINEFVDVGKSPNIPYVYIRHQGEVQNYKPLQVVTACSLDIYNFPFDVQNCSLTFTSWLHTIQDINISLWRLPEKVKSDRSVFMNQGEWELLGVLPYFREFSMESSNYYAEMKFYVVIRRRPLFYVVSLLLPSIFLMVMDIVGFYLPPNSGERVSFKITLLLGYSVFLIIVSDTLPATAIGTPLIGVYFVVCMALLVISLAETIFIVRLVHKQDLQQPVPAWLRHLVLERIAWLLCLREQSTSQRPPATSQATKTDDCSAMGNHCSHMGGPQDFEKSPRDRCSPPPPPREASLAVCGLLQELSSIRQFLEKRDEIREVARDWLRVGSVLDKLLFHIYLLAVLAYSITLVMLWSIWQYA

[17] = molecular target: 5-hydroxytryptamine receptor 2A (Homo sapiens, UniProt P28223); assay: Displacement of [3H]ketanserin from human recombinant 5HT2A receptor expressed in HEK293-EBNA cells; type: cell-based
Sequence of 5-hydroxytryptamine receptor 2A (P28223 whole entry): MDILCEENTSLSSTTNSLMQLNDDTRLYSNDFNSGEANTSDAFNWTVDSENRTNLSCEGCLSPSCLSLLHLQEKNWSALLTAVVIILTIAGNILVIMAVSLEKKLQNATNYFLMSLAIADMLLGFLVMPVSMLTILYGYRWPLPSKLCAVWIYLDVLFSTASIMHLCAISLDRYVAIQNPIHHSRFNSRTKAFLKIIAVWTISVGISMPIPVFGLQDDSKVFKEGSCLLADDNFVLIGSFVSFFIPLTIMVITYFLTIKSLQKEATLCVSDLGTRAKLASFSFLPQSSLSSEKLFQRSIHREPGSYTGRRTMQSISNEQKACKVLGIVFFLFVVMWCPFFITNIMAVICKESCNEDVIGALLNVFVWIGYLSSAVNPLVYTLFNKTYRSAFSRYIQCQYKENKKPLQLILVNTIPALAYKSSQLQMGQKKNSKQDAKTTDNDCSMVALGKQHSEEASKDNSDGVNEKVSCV

[18] = molecular target: 5-hydroxytryptamine receptor 6 (Homo sapiens, UniProt P50406); assay: Displacement of [3H]LSD from human recombinant 5HT6 receptor expressed in HEK293-EBNA cells; type: cell-based
Sequence of 5-hydroxytryptamine receptor 6 (P50406 whole entry): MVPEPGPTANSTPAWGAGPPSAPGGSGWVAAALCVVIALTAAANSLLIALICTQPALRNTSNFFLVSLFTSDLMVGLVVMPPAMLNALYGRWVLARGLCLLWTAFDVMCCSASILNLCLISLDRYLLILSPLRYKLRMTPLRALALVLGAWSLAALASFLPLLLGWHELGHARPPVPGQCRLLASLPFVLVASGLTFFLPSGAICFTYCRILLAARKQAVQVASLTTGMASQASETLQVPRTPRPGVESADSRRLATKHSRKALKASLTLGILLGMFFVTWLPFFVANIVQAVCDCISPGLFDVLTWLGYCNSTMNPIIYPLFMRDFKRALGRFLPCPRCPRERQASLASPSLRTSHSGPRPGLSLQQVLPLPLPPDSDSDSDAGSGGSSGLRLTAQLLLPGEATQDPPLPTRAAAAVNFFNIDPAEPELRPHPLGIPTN

T1 sequence (P47898 whole entry): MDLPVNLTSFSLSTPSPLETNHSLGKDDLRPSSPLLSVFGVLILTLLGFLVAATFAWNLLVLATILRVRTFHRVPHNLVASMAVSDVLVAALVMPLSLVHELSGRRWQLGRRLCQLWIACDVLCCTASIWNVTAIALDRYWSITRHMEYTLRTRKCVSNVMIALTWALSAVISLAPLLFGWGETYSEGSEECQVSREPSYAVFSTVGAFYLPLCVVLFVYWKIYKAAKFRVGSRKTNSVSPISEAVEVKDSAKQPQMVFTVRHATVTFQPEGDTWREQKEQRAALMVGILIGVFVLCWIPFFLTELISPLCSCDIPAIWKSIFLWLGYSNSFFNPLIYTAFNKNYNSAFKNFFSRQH

| Compound | pKi [1] | pKi [3] | pKi [4] | pKi [5] | pKi [7] | other results |
| --- | --- | --- | --- | --- | --- | --- |
| CCC1NC(N)=Nc2ccccc21 (stereo not given) | 7.62 | – | – | – | – | – |
| Cc1cccc2c1CNC(N)=N2 | 6.84 | – | – | – | – | – |
| CCCC1NC(N)=Nc2ccccc21 (stereo not given) | 6.09 | – | – | – | – | – |
| CCC1NC(N)=Nc2cccc(Cl)c21 (stereo not given) | 7.07 | 6.42 | < 5.00 | 5.97 | 7.01 | – |
| CNC1=Nc2c(OC(C)C)cccc2C(C)N1 (stereo not given) | – | 6.01 | 6.80 | 6.17 | 8.62 | Ratio Ki (Homo sapiens [9]): 7; Ratio Ki (Homo sapiens [2]): > 30; Ratio Ki (Homo sapiens [6]): > 30; Ratio Ki (Homo sapiens [8]): > 30 |
| CC1(C)NC(N)=Nc2ccccc21 | 5.93 | – | – | – | – | – |
| NC1=Nc2ccc(Cl)cc2CN1 | 6.09 | – | – | – | – | – |
| CC1NC(N)=Nc2cccc(Cl)c21 (stereo not given) | – | 6.82 | 5.90 | 6.72 | 7.80 | pKi (Histamine H1 receptor): 5.96; pIC50 [10]: < 6.40; fraction unbound [11]: 0.16; pIC50 [12]: < 6.40; Kb [13]: 3.02 nM; inhibition [14]: > 60%; inhibition [15]: > 60% |
| CCC1NC(N)=Nc2ccc(Cl)c(Cl)c21 (stereo not given) | 7.58 | 6.81 | 5.89 | 6.12 | 7.14 | – |
| NC1=Nc2cccc(Cl)c2CN1 [listing 2 of 2 here] | – | – | – | – | – | pKi ([1]; hek293-ebna): 7.00 |
| COc1cccc2c1N=C(N)NC2 | 7.01 | – | – | – | – | – |
| COc1cc(Cl)c(C)c2c1N=C(N)NC2C (stereo not given) | – | 7.72 | 6.84 | 6.98 | 8.60 | Ratio Ki (Homo sapiens [2]): > 30; Ratio Ki (Homo sapiens [6]): > 30; Ratio Ki (Homo sapiens [8]): > 30 |
| CNC1=Nc2cccc(Cl)c2C(C)N1 (stereo not given) | – | 6.63 | 5.84 | 6.41 | 7.82 | Ratio Ki (Homo sapiens [2]): > 30; Kb [13]: 7.41 nM; Ratio Ki (Homo sapiens [6]): > 30; Ratio Ki (Homo sapiens [8]): > 30 |
| CC1NC(N)=Nc2c(Cl)ccc(Cl)c21 (stereo not given) | 8.19 | 7.13 | 6.02 | 7.04 | 8.62 | Ratio Ki (Homo sapiens [2]): > 30; Ratio Ki (Homo sapiens [6]): > 30; Ratio Ki (Homo sapiens [8]): > 30 |
| NC1=Nc2c(Cl)cccc2CN1 | 6.05 | – | – | – | – | – |
| CC1NC(N)=Nc2ccccc21 (stereo not given) | 7.42 | – | – | – | – | – |
| NC1=Nc2ccccc2CN1 | 6.18 | – | – | – | – | – |

Further lines, with some results ahead:

| pKi [1] | pKi [3] | pKi [4] | pKi [5] | pKi [7] | Compound | other results |
| --- | --- | --- | --- | --- | --- | --- |
| 5.86 | – | – | – | – | COc1ccc2c(c1)N=C(N)NC2 | – |
| < 5.00 | – | – | – | – | CN1Cc2ccccc2N=C1N | – |
| 6.19 | – | – | – | – | NC1=Nc2cc(F)ccc2CN1 | – |
| 5.55 | – | – | – | – | CN(C)C1=Nc2ccccc2CN1 | – |
| 6.33 | – | – | – | – | Cc1cccc2c1N=C(N)NC2 | – |
| – | 6.25 | 6.35 | 7.49 | 8.09 | COc1cccc2c1N=C(N)NC2C (stereo not given) | Ratio Ki (Homo sapiens [2]): > 30; Ratio Ki (Homo sapiens [6]): > 30; Ratio Ki (Homo sapiens [8]): > 30 |
| 7.64 | 7.13 | 5.94 | 6.47 | 7.91 | COc1c(Cl)ccc2c1C(C)NC(N)=N2 (stereo not given) | – |
| 6.56 | – | – | – | – | Cc1ccc2c(c1)N=C(N)NC2 | – |
| 6.05 | – | – | – | – | Cc1ccc2c(c1)CNC(N)=N2 | – |
| 7.00 | 6.18 | 5.44 | 5.77 | 6.10 | NC1=Nc2cccc(Cl)c2CN1 [listing 1 of 2 here] | pKi [16]: 5.98; pKi [17]: 5.93; pKi [18]: < 5.00 |
| 6.04 | – | – | – | – | NC1=Nc2ccc(F)cc2CN1 | – |
| 5.70 | – | – | – | – | NC1=Nc2c(F)cccc2CN1 | – |
| – | 7.59 | 6.59 | 6.74 | 8.06 | CC1NC(N)=Nc2ccc(Cl)c(Cl)c21 (stereo not given) | pKi (Histamine H1 receptor): 8.10; Ratio Ki (Homo sapiens [2]): > 30; Ratio Ki (Homo sapiens [6]): > 30; Ratio Ki (Homo sapiens [8]): > 30 |
| 7.37 | 6.68 | 5.90 | 5.97 | 6.53 | NC1=Nc2ccc(Cl)c(Cl)c2CN1 | pKi [16]: 6.76; pKi [17]: 6.36; pKi [18]: 5.94 |
| 6.26 | – | – | – | – | NC1=Nc2cccc(F)c2CN1 | – |
| – | 6.31 | 7.15 | 6.58 | 9.00 | CC(C)Oc1cccc2c1N=C(N)NC2C (stereo not given) | Ratio Ki (Homo sapiens [9]): 7; Ratio Ki (Homo sapiens [2]): > 30; Ratio Ki (Homo sapiens [6]): > 30; Ratio Ki (Homo sapiens [8]): > 30 |
| 5.75 | – | – | – | – | CNC1=Nc2ccccc2CN1 | – |
| 6.46 | – | – | – | – | NC1=Nc2cc(Cl)ccc2CN1 | – |
| – | 7.03 | 6.34 | 6.61 | 7.88 | CNC1=Nc2ccc(Cl)c(Cl)c2C(C)N1 (stereo not given) | Ratio Ki (Homo sapiens [2]): > 30; Ratio Ki (Homo sapiens [6]): > 30; Ratio Ki (Homo sapiens [8]): > 30 |
